pIC50, pKi: −log10 of the molar value.
Tests used:
[1] = biological target: T1, Adenosine receptor A1 (Homo sapiens, UniProt P30542); experiment: Displacement of [3H]CCPA from human A1 receptor expressed in CHO cell membrane by liquid scintillation counting method; format: cell membranes
T1 sequence (P30542 whole entry): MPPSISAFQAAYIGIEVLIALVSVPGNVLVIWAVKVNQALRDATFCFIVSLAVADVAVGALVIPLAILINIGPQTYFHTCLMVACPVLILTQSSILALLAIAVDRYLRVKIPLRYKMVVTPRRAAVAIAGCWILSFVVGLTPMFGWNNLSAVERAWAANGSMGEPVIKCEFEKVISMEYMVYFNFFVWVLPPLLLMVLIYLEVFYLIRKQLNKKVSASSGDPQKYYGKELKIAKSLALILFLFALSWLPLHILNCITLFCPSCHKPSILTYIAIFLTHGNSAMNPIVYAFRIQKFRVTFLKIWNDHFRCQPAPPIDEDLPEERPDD

[2] = biological target: Adenosine receptor A2a (Rattus norvegicus, UniProt P30543); experiment: Displacement of [3H]MSX from A2A receptor in rat brain striatum membranes measured after 30 mins by liquid scintillation counting method; format: cell membranes
[3] = biological target: Adenosine receptor A2a (Homo sapiens, UniProt P29274); experiment: Displacement of [3H]MSX from human A2A receptor measured after 30 mins by liquid scintillation counting method
[4] = biological target: T2, Amine oxidase [flavin-containing] A (Homo sapiens, UniProt P21397); experiment: Inhibition of recombinant human MAO-A expressed in baculovirus infected BTI insect cells preincubated for 30 mins followed by addition of p-tyramine as substrate measured over 45 mins by Amplex Red MAO assay
T2 sequence (P21397 whole entry): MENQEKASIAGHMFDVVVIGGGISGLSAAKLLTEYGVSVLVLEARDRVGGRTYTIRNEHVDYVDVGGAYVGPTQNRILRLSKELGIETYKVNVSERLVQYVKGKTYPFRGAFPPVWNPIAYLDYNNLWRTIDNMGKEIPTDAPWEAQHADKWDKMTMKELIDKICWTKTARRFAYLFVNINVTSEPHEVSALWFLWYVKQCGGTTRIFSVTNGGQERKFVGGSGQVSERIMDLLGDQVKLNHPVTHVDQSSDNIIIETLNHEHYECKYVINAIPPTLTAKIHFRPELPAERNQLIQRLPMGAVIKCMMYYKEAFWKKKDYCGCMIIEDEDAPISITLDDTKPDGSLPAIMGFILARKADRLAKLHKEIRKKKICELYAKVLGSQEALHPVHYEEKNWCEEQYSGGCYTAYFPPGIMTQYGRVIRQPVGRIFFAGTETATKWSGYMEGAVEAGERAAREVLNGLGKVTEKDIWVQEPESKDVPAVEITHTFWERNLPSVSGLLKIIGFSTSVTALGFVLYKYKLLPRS

[5] = biological target: T2, Amine oxidase [flavin-containing] A; experiment: Inhibition of recombinant human MAO-A expressed in baculovirus infected BTI insect cells at 10 uM preincubated for 30 mins followed by addition of p-tyramine as substrate measured over 45 mins by Amplex Red MAO assay relative to control; settings: 0.75 h
[6] = biological target: T3, Amine oxidase [flavin-containing] B (Homo sapiens, UniProt P27338); experiment: Inhibition of recombinant human MAO-B expressed in baculovirus infected BTI insect cells preincubated for 30 mins followed by addition of p-tyramine as substrate measured over 45 mins by Amplex Red MAO assay
T3 sequence (P27338 whole entry): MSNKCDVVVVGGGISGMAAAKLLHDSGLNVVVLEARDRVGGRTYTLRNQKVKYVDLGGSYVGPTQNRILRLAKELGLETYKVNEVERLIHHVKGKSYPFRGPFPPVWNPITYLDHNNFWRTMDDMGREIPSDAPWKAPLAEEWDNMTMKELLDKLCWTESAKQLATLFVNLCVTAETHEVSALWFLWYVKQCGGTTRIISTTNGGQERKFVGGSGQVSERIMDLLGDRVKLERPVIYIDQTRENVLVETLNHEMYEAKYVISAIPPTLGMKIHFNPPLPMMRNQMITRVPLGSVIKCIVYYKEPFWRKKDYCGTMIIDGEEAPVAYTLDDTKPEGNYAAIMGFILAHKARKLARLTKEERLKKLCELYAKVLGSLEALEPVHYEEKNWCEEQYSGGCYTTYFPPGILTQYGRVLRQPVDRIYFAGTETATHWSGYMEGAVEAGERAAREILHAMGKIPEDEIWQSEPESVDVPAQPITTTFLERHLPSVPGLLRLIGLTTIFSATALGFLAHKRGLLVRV

[7] = biological target: T4, Amine oxidase [flavin-containing] B (Rattus norvegicus, UniProt P19643); experiment: Inhibition of recombinant rat MAO-B preincubated for 30 mins followed by addition of p-tyramine as substrate measured over 45 mins by Amplex Red MAO assay
T4 sequence (P19643 whole entry): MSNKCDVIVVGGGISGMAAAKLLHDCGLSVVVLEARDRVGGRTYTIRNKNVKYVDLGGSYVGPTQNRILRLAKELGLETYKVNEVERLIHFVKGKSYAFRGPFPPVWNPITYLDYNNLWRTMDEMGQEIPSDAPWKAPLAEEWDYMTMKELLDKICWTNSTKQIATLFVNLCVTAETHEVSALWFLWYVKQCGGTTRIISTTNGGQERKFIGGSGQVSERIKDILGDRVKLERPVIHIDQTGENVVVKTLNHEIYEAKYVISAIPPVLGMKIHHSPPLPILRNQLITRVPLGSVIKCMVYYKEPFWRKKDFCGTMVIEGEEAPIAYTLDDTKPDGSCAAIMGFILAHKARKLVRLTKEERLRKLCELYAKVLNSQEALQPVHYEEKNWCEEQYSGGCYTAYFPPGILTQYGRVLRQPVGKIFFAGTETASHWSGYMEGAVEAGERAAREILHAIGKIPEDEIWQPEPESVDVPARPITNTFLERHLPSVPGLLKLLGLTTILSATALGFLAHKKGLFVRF

[8] = biological target: T5, Adenosine receptor A2b (Homo sapiens, UniProt P29275); experiment: Displacement of [3H]PSB-603 from human A2B receptor expressed in CHO cell membrane; format: cell membranes
T5 sequence (P29275 whole entry): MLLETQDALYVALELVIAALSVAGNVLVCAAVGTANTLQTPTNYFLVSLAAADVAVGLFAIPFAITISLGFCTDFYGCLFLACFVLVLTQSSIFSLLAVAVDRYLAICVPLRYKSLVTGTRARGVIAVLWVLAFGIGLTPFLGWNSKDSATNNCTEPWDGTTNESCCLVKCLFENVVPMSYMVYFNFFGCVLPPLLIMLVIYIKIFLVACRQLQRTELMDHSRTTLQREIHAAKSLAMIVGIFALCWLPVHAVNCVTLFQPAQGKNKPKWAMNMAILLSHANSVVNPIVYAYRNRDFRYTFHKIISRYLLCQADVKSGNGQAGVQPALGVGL

Adenosine receptor A2a (Homo sapiens, UniProt P29274), sequence (P29274 whole entry): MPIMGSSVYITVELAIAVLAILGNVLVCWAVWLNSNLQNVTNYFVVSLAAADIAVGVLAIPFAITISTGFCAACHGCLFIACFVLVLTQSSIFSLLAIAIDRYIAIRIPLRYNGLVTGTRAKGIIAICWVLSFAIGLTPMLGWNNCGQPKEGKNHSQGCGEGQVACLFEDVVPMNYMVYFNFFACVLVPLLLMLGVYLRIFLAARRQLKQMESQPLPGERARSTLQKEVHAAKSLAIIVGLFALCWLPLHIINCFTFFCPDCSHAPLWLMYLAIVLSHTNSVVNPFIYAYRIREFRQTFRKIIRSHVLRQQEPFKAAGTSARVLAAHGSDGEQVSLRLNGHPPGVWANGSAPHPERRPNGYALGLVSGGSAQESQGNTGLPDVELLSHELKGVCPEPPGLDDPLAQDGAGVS
Adenosine receptor A2a (Rattus norvegicus, UniProt P30543), sequence (P30543 whole entry): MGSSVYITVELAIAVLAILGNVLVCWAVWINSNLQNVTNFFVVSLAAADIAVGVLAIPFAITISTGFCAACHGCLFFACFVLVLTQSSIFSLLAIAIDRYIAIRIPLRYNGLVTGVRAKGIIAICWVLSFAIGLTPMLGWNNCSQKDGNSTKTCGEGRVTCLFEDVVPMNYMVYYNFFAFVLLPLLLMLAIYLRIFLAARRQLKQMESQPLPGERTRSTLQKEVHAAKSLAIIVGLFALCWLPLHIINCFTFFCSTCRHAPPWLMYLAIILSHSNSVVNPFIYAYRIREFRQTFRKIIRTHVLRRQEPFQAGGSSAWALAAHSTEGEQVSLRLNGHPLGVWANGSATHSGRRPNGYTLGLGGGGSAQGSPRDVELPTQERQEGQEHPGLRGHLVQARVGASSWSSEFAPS

SMILES | pKi [1] | pKi [2] | pKi [3] | pIC50 [4] | inhibition at 10 µM [5] | pIC50 [6] | pIC50 [7] | pKi [8]
Cn1c(=O)c2c(nc3n2CCN([C@@H]2CCCc4ccccc42)C3)n(C)c1=O | 6.41 | 6.29 | 6.23 | < 5.00 | 14% | 6.68 | 7.00 | < 6.52
Cn1c(=O)c2c(nc3n2CCN(c2cccc(Cl)c2)C3)n(C)c1=O | ≤ 5.00 | 6.25 | 5.05 | < 5.00 | 4% | 6.41 | 6.60 | < 6.00
